Measured values from PMC4727756 (Journal of analytical & bioanalytical techniques, 2015).

Tests used:
[1] = stability of stock and working solutions (LC-MS/MS); format: physicochemical; settings: stored at 4°C for at least 6 months
Description: The stabilities of stock and working solutions for both analyte and internal standard were also evaluated. Stock solutions of analyte and IS were stored at −20°C for 9 months.

in vitro = in vitro ADME
Description: Short-term stabilities were also determined for post-preparation QC standards stored at room temperature for 10 hours. The QC results obtained after storage were compared with spiked concentration values by determining the percentage ratios of experimental values divided by spiked values.

stability of working solutions ([1]; 7.5 ng/mL IS) [%]	recovery at 8 h, 1.25 ng/mL (in vitro; rat plasma QC samples, rat plasma, bench top (8 hr) at room temp, 1.25 ng/ml) [%]	recovery at 8 h, 80 ng/mL (in vitro; rat plasma QC samples, rat plasma, bench top (8 hr) at room temp, 80.00 ng/ml) [%]	recovery at 3 days, 1.25 ng/mL (in vitro; rat plasma QC samples, rat plasma, freeze thaw (3 cycles), 1.25 ng/ml) [%]	recovery at 3 days, 80 ng/mL (in vitro; rat plasma QC samples, rat plasma, freeze thaw (3 cycles), 80.00 ng/ml) [%]	recovery at 10 h, 1.25 ng/mL (in vitro; rat, post-extraction (post-preparation) rat plasma QC samples, post extraction (10 hr) at room temp, 1.25 ng/ml) [%]	recovery at 10 h, 80 ng/mL (in vitro; rat, post-extraction (post-preparation) rat plasma QC samples, post extraction (10 hr) at room temp, 80.00 ng/ml) [%]	stability of working solutions ([1]; two QC standards (1.25 and 80 ng/mL))	Compound
115.60								Cc1ccc(C)c(COc2cc(NC(=O)C3CCCCC3)ccc2N(C)S(C)(=O)=O)c1 [JCC76, N-(3-(2,5-dimethylbenzyloxy)-4-(methylmethylsulfonamido)phenyl)cyclohexanecaboxamide, reference compound]
	103	103	98.1	105	102	108	99.60–105.00%	Cc1ccc(C)c(COc2cc(NC(=O)c3cc(C(F)(F)F)cc(C(F)(F)F)c3)ccc2N(C)S(C)(=O)=O)c1 [BMCL26]
